Activity calls are given as the source filed them. No cut-off for these calls is given here.
Tests used:
[1] = Fluorescence property of compound in CH3CN assessed as fluorescence quantum yield by spectrofluorometric analysis; assay type: physicochemical
[2] = Absorption property of compound in CH3CN assessed as maximal molar absorption coefficient by UV-vis spectrophotometer; assay type: physicochemical
[3] = Absorption property of compound in CH3CN assessed as maximal wavelength by UV-vis spectrophotometer; assay type: physicochemical
[4] = Emission property of compound in CH3CN assessed as maximal wavelength by […]; assay type: physicochemical
HCT-116 [5] = assay: Antiproliferative activity against human HCT-116 cells assessed as inhibition of cell growth incubated for 72 hrs under photoirradiation with 6 cool white lamps for 15 mins at 4,28 and 52 hrs after compound addition by MTT assay; assay type: functional, cell-based; settings: HCT-116, light or radiation study
HCT-116 [6] = assay: Antiproliferative activity against human HCT-116 cells assessed as inhibition of cell growth incubated for 72 hrs under dark condition by MTT assay; assay type: functional, cell-based; settings: HCT-116, 72 h
MCF7 [7] = assay: Antiproliferative activity against human MCF7 cells assessed as inhibition of cell growth incubated for 72 hrs under dark condition by MTT assay; assay type: functional, cell-based; settings: MCF7, 72 h
NCI-H460 [8] = assay: Antiproliferative activity against human NCI-H460 cells assessed as inhibition of cell growth incubated for 72 hrs under photoirradiation with 6 cool white lamps for 15 mins at 4,28 and 52 hrs after compound addition by MTT assay; assay type: functional, cell-based; settings: NCI-H460, light or radiation study
MCF7 [9] = assay: Antiproliferative activity against human MCF7 cells assessed as inhibition of cell growth incubated for 72 hrs under photoirradiation with 6 cool white lamps for 15 mins at 4,28 and 52 hrs after compound addition by MTT assay; assay type: functional, cell-based; settings: MCF7, light or radiation study
NCI-H460 [10] = assay: Antiproliferative activity against human NCI-H460 cells assessed as inhibition of cell growth incubated for 72 hrs under dark condition by MTT assay; assay type: functional, cell-based; settings: NCI-H460, 72 h
[11] = Induction of singlet oxygen production in CH3CN assessed as singlet oxygen quantum yield at 450 nm under photoirradiation with visible light and measured after 15 to 60 sec by DPBF based assay; assay type: functional; settings: time 15-60 sec
[12] = Induction of singlet oxygen production in CH3CN assessed as decrease in fluorescence intensity at 450 nm under photoirradiation with visible light and measured after 45 sec by DPBF based assay relative to control; assay type: functional; set-up: scale not given: the % may be the effect or the level left
HCT-116 [13] = assay: Induction of ROS generation in human HCT-116 cells assessed as increase in oxidative stress at 5 uM preincubated with compound for 1 hrs followed by photoirradiation with 6 cool white lamps by DCFH-DA staining based fluorescence analysis; assay type: functional, cell-based
[14] = Induction of singlet oxygen production in CH3CN assessed as decrease in fluorescence intensity at 450 nm under photoirradiation with visible light and measured after 15 sec by DPBF based assay relative to control; assay type: functional; set-up: scale not given: the % may be the effect or the level left
[15] = Induction of singlet oxygen production in CH3CN assessed as decrease in fluorescence intensity at 450 nm under photoirradiation with visible light and measured after 30 sec by DPBF based assay relative to control; assay type: functional; set-up: scale not given: the % may be the effect or the level left
HCT-116 [16] = assay: Induction of ROS generation in human HCT-116 cells at 5 uM incubated for 1 hrs under dark condition by DCFH-DA staining based fluorescence analysis; assay type: functional, cell-based
[17] = Induction of singlet oxygen production in CH3CN assessed as decrease in fluorescence intensity at 450 nm under photoirradiation with visible light and measured after 1 min by DPBF based assay relative to control; assay type: functional; set-up: scale not given: the % may be the effect or the level left
[18] = Cytotoxicity against HEK293T cells assessed as inhibition of cell growth incubated for 72 hrs under photoirradiation with 6 cool white lamps for 15 mins at 4,28 and 52 hrs after compound addition by MTT assay; assay type: toxicity, cell-based, HEK-293T; settings: human
[19] = Cytotoxicity against human HaCaT cells assessed as inhibition of cell growth incubated for 72 hrs under photoirradiation with 6 cool white lamps for 15 mins at 4,28 and 52 hrs after compound addition by MTT assay; assay type: toxicity, cell-based
[20] = Cytotoxicity against HEK293T cells assessed as inhibition of cell growth incubated for 72 hrs under dark condition by MTT assay; assay type: toxicity, cell-based, HEK-293T; settings: human
[21] = Cytotoxicity against human HaCaT cells assessed as inhibition of cell growth incubated for 72 hrs under dark condition by MTT assay; assay type: toxicity, cell-based

Row | Compound | Activity [1] | Activity [2] | Activity [3] | Activity [4] | IC50 (HCT-116 [5]) | IC50 (HCT-116 [6]) | IC50 (MCF7 [7]) | IC50 (NCI-H460 [8]) | IC50 (MCF7 [9]) | IC50 (NCI-H460 [10]) | further results
1 | CC(=O)OCC1=C2C(C)=CC(C)=[N+]2[B-](F)(F)n2c(C)cc(C)c21 | 0.99 | 99848 M⁻¹ cm⁻¹ | 517 nm | 528 nm |  |  |  |  |  |  | 
2 | CO[B-]1(C)n2c(C)cc(C)c2C(COc2ccccc2COC(C)=O)=C2C(C)=CC(C)=[N+]21 (centres undefined) |  |  |  |  | 2.3 µM | 17 µM | 13 µM | 2 µM | 1.18 µM | 20 µM | 
3 | COc1cccc(CO)c1OCC1=C2C(C)=C(I)C(C)=[N+]2[B-](C)(C)n2c(C)c(I)c(C)c21 | 0.012 | 65694 M⁻¹ cm⁻¹ | 535 nm | 560 nm | 0.15 µM | 13 µM | 12 µM | 0.15 µM | 0.1 µM | 31 µM | 
4 | CC(=O)OCc1ccccc1OCC1=C2C(C)=CC(C)=[N+]2[B-](C)(C)n2c(C)cc(C)c21 | 0.28 | 146706 M⁻¹ cm⁻¹ | 510 nm | 521 nm | 0.21 µM | 33 µM | 27 µM | 0.19 µM | 0.2 µM | 83 µM | Activity [11]: 0.1; Activity [12]: 21.1%; Activity (HCT-116 [13]): Active; Activity [14]: 4.9%; Activity [15]: 12.9%; Activity (HCT-116 [16]): inactive; Activity [17]: 32.3%
5 | CC1=C(Br)C(C)=[N+]2C1=C(COc1ccccc1CO)c1c(C)c(Br)c(C)n1[B-]2(C)C | 0.04 | 42810 M⁻¹ cm⁻¹ | 531 nm | 557 nm | 0.4 µM | 26 µM | 17 µM | 0.6 µM | 0.23 µM | 69 µM | 
6 | CC1=C(I)C(C)=[N+]2C1=C(COc1ccccc1CO)c1c(C)c(I)c(C)n1[B-]2(C)C | 0.005 | 41143 M⁻¹ cm⁻¹ | 537 nm | 560 nm | 0.13 µM | 37 µM | 27 µM | 0.18 µM | 0.13 µM | 53 µM | 
7 | CO[B-]1(C)n2c(C)c(Br)c(C)c2C(COc2ccccc2CO)=C2C(C)=C(Br)C(C)=[N+]21 (centres undefined) |  |  |  |  | 14 µM | > 100 µM | 27 µM | 17 µM | 6 µM | > 100 µM | 
8 | CC1=CC(C)=[N+]2C1=C(C=O)c1c(C)cc(C)n1[B-]2(C)C |  |  |  |  | 40 µM | 49 µM | 20 µM | 61 µM | 15 µM | > 100 µM | 
9 | CC(=O)OCc1ccccc1OCC1=C2C(C)=C(I)C(C)=[N+]2[B-](C)(C)n2c(C)c(I)c(C)c21 | 0.005 | 37520 M⁻¹ cm⁻¹ | 537 nm | 565 nm | 0.18 µM | ≥ 100 µM | 63 µM | 0.25 µM | 0.17 µM | ≥ 100 µM | 
10 | CC1=CC(C)=[N+]2C1=C(COc1ccccc1CO)c1c(C)cc(C)n1[B-]2(C)C | 0.33 | 87209 M⁻¹ cm⁻¹ | 510 nm | 527 nm | 0.15 µM | 13 µM | 14 µM | 0.13 µM | 0.2 µM | 16.1 µM | Activity [11]: 0.1; Activity [12]: 18.9%; Activity (HCT-116 [13]): Active; Activity [14]: 1.1%; Activity [15]: 8.8%; Activity (HCT-116 [16]): inactive; Activity [17]: 26.9%
11 | CO[B-]1(C)n2c(C)c(I)c(C)c2C(COc2ccccc2CO)=C2C(C)=C(I)C(C)=[N+]21 (centres undefined) |  |  |  |  | 30 µM | 42 µM | 8 µM | ≤ 50 µM | 8 µM | 34 µM | 
12 | CO[B-]1(C)n2c(C)c(I)c(C)c2C(COc2ccccc2COC(C)=O)=C2C(C)=C(I)C(C)=[N+]21 (centres undefined) |  |  |  |  | 1.7 µM | > 100 µM | 27 µM | 1.3 µM | 0.7 µM | > 100 µM | 
13 | COc1cccc(COC(C)=O)c1OCC1=C2C(C)=C(Br)C(C)=[N+]2[B-](C)(OC)n2c(C)c(Br)c(C)c21 (centres undefined) |  |  |  |  | 6 µM | 24 µM | 15 µM | 16 µM | 2 µM | 48 µM | 
14 | COc1cccc(COC(C)=O)c1OCC1=C2C(C)=C(I)C(C)=[N+]2[B-](C)(C)n2c(C)c(I)c(C)c21 | 0.017 | 58719 M⁻¹ cm⁻¹ | 535 nm | 545 nm | 0.176 µM | > 100 µM | > 100 µM | 0.22 µM | 0.13 µM | > 100 µM | Activity [11]: 0.78; IC50 at 72 h [18]: 0.2 µM; Activity [12]: 100%; Activity [14]: 84.9%; IC50 at 72 h [19]: 0.2 µM; Activity [15]: 98.8%; IC50 at 72 h [20]: > 100 µM; IC50 at 72 h [21]: > 100 µM
15 | COc1cccc(CO)c1OCC1=C2C(C)=C(Br)C(C)=[N+]2[B-](C)(C)n2c(C)c(Br)c(C)c21 | 0.04 | 54912 M⁻¹ cm⁻¹ | 530 nm | 555 nm | 0.192 µM | 14 µM | 11 µM | 0.18 µM | 0.15 µM | 19 µM | 
16 | COc1cccc(CO)c1OCC1=C2C(C)=CC(C)=[N+]2[B-](C)(C)n2c(C)cc(C)c21 | 0.33 | 109069 M⁻¹ cm⁻¹ | 510 nm | 521 nm | 0.38 µM | 12 µM | 15 µM | 0.24 µM | 0.2 µM | 16 µM | Activity (HCT-116 [13]): Active; Activity (HCT-116 [16]): inactive
